Test results: EP0929311B1, “INHIBITION OF APOPTOSIS USING INTERLEUKIN-1 beta-CONVERTING ENZYME (ICE)/CED-3 FAMILY INHIBITORS” (Idun Pharmaceuticals, Inc., priority 1996, dated 1998)
Residues, ends and D or L forms follow the SMILES beside them. *: point of attachment. Cbz = O=C(OCc1ccccc1)*; CH2F = FC*

Tested on: granulocytes
Assay: Granulocyte/neutrophil survival in culture, hypodiploid nuclei by propidium iodide flow cytometry
Assay type: cell-based
Conditions: at 48 hours; granulocytes cultured at 37°C, hypodiploid DNA
Procedure: Whole blood anticoagulated with Acid Citrate Dextrose (ACD) with a ratio of 1:5 ACD to blood was collected (~100 ml).
Using polypropylene plastic ware, neutrophils are isolated as follows: • 30 ml of the whole blood is added to 50 ml polypropylene centrifuge tubes containing 15 ml of 6% Dextran (in Saline). The blood is allowed to sediment for approximately 1 hour at room temperature.
The turbid straw colored layer harvested from the top of the cylinders into 50 ml conical polypropylene tubes. The blood cells were pelleted by centrifugation at 240 xg (Sorvall centrifuge at 1200 rpm) for 12 min. at 4°C with the brake on low. […]
The supernatant was aspirated and the neutrophil pellet resuspended in 4.0 ml cold PBS (w/o Ca, Mg) on ice. 10 µl of the neutrophil cell suspension was diluted with 990 µl of Trypan blue (1:100) and cells counted using a hemacytometer. The cell number and viability were determined. […]
Neutrophils were resuspended in hypotonic fluorochrome solution at a density of 5×10^6 cells/ml. Propidium iodide fluorescence of individual nuclei was evaluated in FL2 and measured on a logarithmic scale while gating on physical parameters in forward and side scatter to exlude cell debris.
At least 10,000 events per sample were collected and the results were evaluated relative to a non-apoptotic neutrophil population. […]

## COC(=O)C[C@H](NC(=O)[C@H](C)NC(=O)[C@@H](NC(=O)OCc1ccccc1)C(C)C)C(=O)CF [zVADfmk] (Cbz-Val-Ala-Asp(OMe)-CH2F)
  effect on improving granulocyte survival: weak effect
